The values below come from patent US11059780B2, “Substituted pyrrolidine compound and use thereof” (Takeda Pharmaceutical Company Limited, priority 2017, dated 2021).

The target of this experiment is T1, human orexin type 2 receptor (hOX2R) (Homo sapiens, UniProt O43614).
T1 construct: expressed in transfected cells
T1 sequence (O43614 1-444): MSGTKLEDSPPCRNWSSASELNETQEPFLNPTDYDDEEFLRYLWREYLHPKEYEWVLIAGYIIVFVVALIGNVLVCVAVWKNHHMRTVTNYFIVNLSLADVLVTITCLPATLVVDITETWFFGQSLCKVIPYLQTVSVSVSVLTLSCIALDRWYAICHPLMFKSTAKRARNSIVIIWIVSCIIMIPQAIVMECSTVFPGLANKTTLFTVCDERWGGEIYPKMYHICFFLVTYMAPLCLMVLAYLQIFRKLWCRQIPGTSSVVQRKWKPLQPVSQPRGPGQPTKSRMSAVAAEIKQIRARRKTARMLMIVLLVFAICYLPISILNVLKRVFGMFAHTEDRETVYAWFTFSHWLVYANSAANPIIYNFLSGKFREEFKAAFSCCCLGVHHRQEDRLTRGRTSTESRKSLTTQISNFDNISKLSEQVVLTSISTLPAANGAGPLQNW
Put plainly: Measurement of orexin type 2 receptor agonist activity (Fluo-4 calcium fluorescence, CHO cells forcibly expressing human OX2 receptor). The experiment is classed as cell-based. To be noted: test compound 3 μM, DMSO = 0%, orexin A (human) 10 nM = 100%. Put shortly:
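CHO-dhfr cells stably expressing human OX2 receptor, loaded with Fluo-4 AM in HBSS/HEPES/BSA with probenecid, then given test compound at 3 μM. Calcium fluorescence recorded for about 2 min 40 s by FDSS; activity normalized to DMSO (0%) and 10 nM human orexin A (100%).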
In the case of `CO[C@@H]1CN(C(=O)c2cc(C)ccc2C)C[C@H]1Oc1cccc(CS(=O)(=O)N2CCCC2c2cnccn2)c1` (relative stereo) [Example 39, trans-(2,5-dimethylphenyl)(3-methoxy-4-(3-(((2-(pyrazin-2-yl)pyrrolidin-1-yl)sulfonyl)methyl)phenoxy)pyrrolidin-1-yl)methanone], the “OX2R agonist activity (3 μM, %)” value is 76%. As for `CO[C@@H]1CN(C(=O)c2cc(C)ccc2C)C[C@H]1Oc1cccc(CS(=O)(=O)N2CCCC2c2cccnc2)c1` (relative stereo) [Example 16, trans-(2,5-dimethylphenyl)(3-methoxy-4-(3-(((2-(pyridin-3-yl)pyrrolidin-1-yl)sulfonyl)methyl)phenoxy)pyrrolidin-1-yl)methanone], the “OX2R agonist activity (3 μM, %)” value is recorded as 77%. In the case of `COC1CN(C(=O)c2cc(C)ccc2C)CC1Oc1cc(NS(=O)(=O)N2C[C@@H]3C[C@H]3C2)cc(F)n1` (relative stereo) [Example 116, trans-N-(2-((1-(2,5-dimethylbenzoyl)-4-methoxypyrrolidin-3-yl)oxy)-6-fluoropyridin-4-yl)-3-azabicyclo[3.1.0]hexane-3-sulfonamide], the “OX2R agonist activity (3 μM, %)” value was 68%. On to `COC1CN(C(=O)c2cc(C)ccc2C)CC1Oc1cccc(NS(=O)(=O)N2C[C@@H]3CC[C@@H](C2)O3)c1` (relative stereo) [Example 80, trans-N-(3-((1-(2,5-dimethylbenzoyl)-4-methoxypyrrolidin-3-yl)oxy)phenyl)-8-oxa-3-azabicyclo[3.2.1]octane-3-sulfonamide], for which the “OX2R agonist activity (3 μM, %)” value is 94%. In the case of `COc1ccccc1OC(=O)N1C[C@@H](OC)[C@H](Oc2cccc(NS(=O)(=O)N3CC4CC4C3)c2)C1` (stereo partly drawn) [Example 157, 2-methoxyphenyl(3R,4R)-3-(3-((3-azabicyclo[3.1.0]hex-3-ylsulfonyl)amino)phenoxy)-4-methoxypyrrolidine-1-carboxylate], the “OX2R agonist activity (3 μM, %)” value is reported as 83%.

Consider `COc1ccc(C)c(C)c1C(=O)N1C[C@@H](OC)[C@H](Oc2cccc(CS(=O)(=O)N(C)C3CCOCC3)c2)C1` (relative stereo) [Example 162, trans-1-(3-((4-methoxy-1-(6-methoxy-2,3-dimethylbenzoyl)pyrrolidin-3-yl)oxy)phenyl)-N-methyl-N-(tetrahydro-2H-pyran-4-yl)methanesulfonamide], for which the “OX2R agonist activity (3 μM, %)” value was 96%. Under `CO[C@@H]1CN(C(=O)c2cc(C)ccc2C)C[C@H]1Oc1cccc(CS(=O)(=O)N2CCCC2c2ccccc2Cl)c1` (relative stereo) [Example 37, trans-(3-(3-(((2-(2-chlorophenyl)pyrrolidin-1-yl)sulfonyl)methyl)phenoxy)-4-methoxypyrrolidin-1-yl)(2,5-dimethylphenyl)methanone] stands 86%; under `CO[C@@H]1CN(C(=O)c2cc(C)ccc2C)C[C@H]1Oc1cccc(CS(=O)(=O)N2CCCC2)c1` (relative stereo) [Example 5, trans-(2,5-dimethylphenyl)(3-methoxy-4-(3-((pyrrolidin-1-ylsulfonyl)methyl)phenoxy)pyrrolidin-1-yl)methanone], 32%. Turning to `CO[C@@H]1CN(C(=O)c2cc(C)ccc2C)C[C@H]1Oc1cccc(NS(=O)(=O)N(C)C2CC2)c1` (relative stereo) [Example 44, trans-N-cyclopropyl-N′-(3-((1-(2,5-dimethylbenzoyl)-4-methoxypyrrolidin-3-yl)oxy)phenyl)-N-methylsulfuric diamide], the “OX2R agonist activity (3 μM, %)” value turned out to be 73%.

In the case of `CO[C@@H]1CN(C(=O)c2cc(C)ccc2C)C[C@H]1Oc1cccc(CS(=O)(=O)N2CCC23CCOCC3)c1` (relative stereo) [Example 21, trans-(2,5-dimethylphenyl)(3-methoxy-4-(3-((7-oxa-1-azaspiro[3.5]non-1-ylsulfonyl)methyl)phenoxy)pyrrolidin-1-yl)methanone], the “OX2R agonist activity (3 μM, %)” value was determined as 70%. For the molecule `CO[C@@H]1CN(C(=O)c2cc(C)ccc2C)C[C@H]1Oc1cccc(CS(=O)(=O)N2CCC23CN(C(=O)OC(C)(C)C)C3)c1` (relative stereo) [Example 32, tert-butyl trans-1-((3-((1-(2,5-dimethylbenzoyl)-4-methoxypyrrolidin-3-yl)oxy)benzyl)sulfonyl)-1,6-diazaspiro[3.3]heptane-6-carboxylate], the “OX2R agonist activity (3 μM, %)” value stood at 109%. In the case of `CO[C@@H]1CN(C(=O)C2(c3ccccc3)CCC2)C[C@H]1Oc1cccc(CS(=O)(=O)N(C)C2CCOCC2)c1` (relative stereo) [Example 147, trans-1-(3-((4-methoxy-1-((1-phenylcyclobutyl)carbonyl)pyrrolidin-3-yl)oxy)phenyl)-N-methyl-N-(tetrahydro-2H-pyran-4-yl)methanesulfonamide], the “OX2R agonist activity (3 μM, %)” value was 37%.

In the case of `COC(=O)C1COCCN1S(=O)(=O)Cc1cccc(O[C@@H]2CN(C(=O)c3cc(C)ccc3C)C[C@H]2OC)c1` (relative stereo) [Example 12, methyl trans-4-((3-((1-(2,5-dimethylbenzoyl)-4-methoxypyrrolidin-3-yl)oxy)benzyl)sulfonyl)morpholine-3-carboxylate], the “OX2R agonist activity (3 μM, %)” value stood at 60%. Under `CCc1cccc(C)c1C(=O)N1C[C@@H](OC)[C@H](Oc2cccc(CS(=O)(=O)N(CC)C3CCOCC3)c2)C1` [Example 158, N-ethyl-1-(3-(((3R,4R)-1-(2-ethyl-6-methylbenzoyl)-4-methoxypyrrolidin-3-yl)oxy)phenyl)-N-(tetrahydro-2H-pyran-4-yl)methanesulfonamide] stands 83%; under `CO[C@@H]1CN(C(=O)c2c(C)cccc2C2CC2)C[C@H]1Oc1cccc(OS(=O)(=O)N(C)C2CCOCC2)c1` (relative stereo) [Example 163, trans-3-((1-(2-cyclopropyl-6-methylbenzoyl)-4-methoxypyrrolidin-3-yl)oxy)phenyl methyl(tetrahydro-2H-pyran-4-yl)sulfamate], 97%. As to `COc1cccc(C)c1C(=O)N1C[C@@H](OC)[C@H](Oc2cccc(CS(=O)(=O)N3CCCC3c3ccccn3)c2)C1` (relative stereo) [Example 119, trans-(2-methoxy-6-methylphenyl)(3-methoxy-4-(3-(((2-(pyridin-2-yl)pyrrolidin-1-yl)sulfonyl)methyl)phenoxy)pyrrolidin-1-yl)methanone], the “OX2R agonist activity (3 μM, %)” value worked out at 100%. Turning to `CO[C@@H]1CN(C(=O)c2cc(C)ccc2C)C[C@H]1Oc1cccc(CS(=O)(=O)N2CCCC2c2nccs2)c1` (relative stereo) [Example 40, trans-(2,5-dimethylphenyl)(3-methoxy-4-(3-(((2-(1,3-thiazol-2-yl)pyrrolidin-1-yl)sulfonyl)methyl)phenoxy)pyrrolidin-1-yl)methanone], the “OX2R agonist activity (3 μM, %)” value is on record as 79%. As to `CO[C@@H]1CN(C(=O)c2cc(C)ccc2C)C[C@H]1Oc1cccc(NS(=O)(=O)N2CCC(C)C2)c1` (relative stereo) [Example 68, trans-N-(3-((1-(2,5-dimethylbenzoyl)-4-methoxypyrrolidin-3-yl)oxy)phenyl)-3-methylpyrrolidine-1-sulfonamide], the “OX2R agonist activity (3 μM, %)” value is given as 84%. For the molecule `COc1cccc(C)c1C(=O)N1C[C@@H](OC)[C@H](Oc2cccc(NS(=O)(=O)N3CC4CC4C3)c2)C1` (stereo partly drawn) [Example 121, N-(3-(((3R,4R)-4-methoxy-1-(2-methoxy-6-methylbenzoyl)pyrrolidin-3-yl)oxy)phenyl)-3-azabicyclo[3.1.0]hexane-3-sulfonamide], the “OX2R agonist activity (3 μM, %)” value is reported as 114%.

For the molecule `CO[C@@H]1CN(C(=O)c2cc(C)ccc2C)C[C@H]1Oc1cccc(NS(=O)(=O)N(C)C2CCOC2)c1` (relative stereo) [Example 46, trans-N′-(3-((1-(2,5-dimethylbenzoyl)-4-methoxypyrrolidin-3-yl)oxy)phenyl)-N-methyl-N-(tetrahydrofuran-3-yl)sulfuric diamide], the “OX2R agonist activity (3 μM, %)” value is 94%. Regarding `CO[C@@H]1CN(C(=O)c2c(C)cccc2C2CC2)C[C@H]1Oc1cccc(NS(=O)(=O)N(C)C2CCOCC2)c1` (relative stereo) [Example 165, trans-N′-(3-((1-(2-cyclopropyl-6-methylbenzoyl)-4-methoxypyrrolidin-3-yl)oxy)phenyl)-N-methyl-N-(tetrahydro-2H-pyran-4-yl)sulfuric diamide], the “OX2R agonist activity (3 μM, %)” value was found to be 108%. Regarding `CO[C@@H]1CN(C(=O)c2ccccc2C2CC2)C[C@H]1Oc1cccc(CS(=O)(=O)N(C)C2CCOCC2)c1` (relative stereo) [Example 153, trans-1-(3-((1-(2-cyclopropylbenzoyl)-4-methoxypyrrolidin-3-yl)oxy)phenyl)-N-methyl-N-(tetrahydro-2H-pyran-4-yl)methanesulfonamide], the “OX2R agonist activity (3 μM, %)” value is on record as 105%. For `COC1CN(C(=O)c2cc(C)ccc2C)CC1Oc1cccc(NS(=O)(=O)N2CC[C@@H]3C[C@H]32)c1` (relative stereo) [Example 72, trans-N-(3-((1-(2,5-dimethylbenzoyl)-4-methoxypyrrolidin-3-yl)oxy)phenyl)-2-azabicyclo[3.1.0]hexane-2-sulfonamide], the “OX2R agonist activity (3 μM, %)” value amounted to 74%.
